US8835378B2, “Multi-domain amphipathic helical peptides and methods of their use” (The United States of America as represented by the …, priority 2004, dated 2014)
Where a SMILES comes first, the peptide text is derived from it.

How the values were obtained:
red blood cells = assay: Red blood cell hemolysis assay; assay type: cell-based; settings: 1 hour at 37° C.
Method: Red blood cells were incubated with the indicated concentration of the peptides for 1 hour at 37° C. Results are expressed as the mean of triplicates±1 SD.
Approximately 25% of the red blood cells were lysed after 1 hour at the maximum dose tested (FIG. 9). Overall, the modified peptides containing the Ala substitutions were less cytotoxic, and the degree of cytotoxicity closely correlated with the number of Ala substitutions.

[1] = test system: HeLa cells stably transfected with human ABCA1 cDNA (ABCA1 cells); assay: Cholesterol and phospholipid efflux from ABCA1 transfected cells; assay type: cell-based; settings: for cholesterol efflux to other detergents compared with taurodeoxycholate: sublytic concentrations, ABCA1 cells and control cells; for cholesterol and phospholipid efflux from ABCA1 cells (in words): 18 hours
Method: (§1) Percentage efflux was calculated after subtracting the radioactive counts in the blank media (αMEM plus 1 mg/ml of BSA), and expressed as the percent of total radioactive counts removed from the cells during the efflux period.
(§2) Cell fixation was performed by a 10 minute treatment with 3% paraformaldehyde in phosphate buffered saline (PBS), followed by three washes with blank media. Lactate dehydrogenase (LDH) release from cells into the media was measured enzymatically (Roche Diagnostics, Indianapolis, Ind.) and expressed, after subtraction of LDH released into blank media, as the percentage of total cell LDH. Total cell LDH was determined after cell solubilization with 1% Triton X-100.

[2] = test system: ABCA1 cells and control cells; assay: Cell morphology by light microscopy during efflux experiments; assay type: cell-based, human; settings: light microscopy, during efflux experiments
[3] = test system: HeLa cells transfected with only a hygromycin-resistant control plasmid (control cells); assay: Cholesterol and phospholipid efflux from control cells; assay type: cell-based, human; settings: for cholesterol and phospholipid efflux from control cells (in words): 18 hours
Method: as §1, §2

CC(C)C[C@H](NC(=O)[C@H](Cc1c[nH]c2ccccc12)NC(=O)[C@H](CC(=O)O)NC(=O)[C@@H]1CCCN1C(=O)[C@H](Cc1ccccc1)NC(=O)[C@H](C)NC(=O)[C@H](CCC(=O)O)NC(=O)[C@H](CCCCN)NC(=O)[C@H](CC(C)C)NC(=O)[C@H](CCCCN)NC(=O)[C@H](CCC(=O)O)NC(=O)[C@H](C)NC(=O)[C@@H](NC(=O)[C@H](CCCCN)NC(=O)[C@H](CC(=O)O)NC(=O)[C@H](Cc1ccc(O)cc1)NC(=O)[C@H](Cc1ccccc1)NC(=O)[C@H](C)NC(=O)[C@H](CCCCN)NC(=O)[C@H](CC(C)C)NC(=O)[C@H](Cc1c[nH]c2ccccc12)NC(=O)[C@@H](N)CC(=O)O)C(C)C)C(=O)N[C@@H](CCCCN)C(=O)N[C@@H](C)C(=O)N[C@@H](Cc1ccccc1)C(=O)N[C@@H](Cc1ccc(O)cc1)C(=O)N[C@@H](CC(=O)O)C(=O)N[C@@H](CCCCN)C(=O)N[C@H](C(=O)N[C@@H](C)C(=O)N[C@@H](CCC(=O)O)C(=O)N[C@@H](CCCCN)C(=O)N[C@@H](C)C(=O)N[C@@H](CCCCN)C(=O)N[C@@H](CCC(=O)O)C(=O)N[C@@H](C)C(=O)N[C@@H](Cc1ccccc1)C(=O)O)C(C)C [1A] (H-DWLKAFYDKVAEKLKEAFPDWLKAFYDKVAEKAKEAF-OH; N-terminus and C-terminus assumed)
hemolysis / cytotoxicity to red blood cells (in words) (red blood cells): moderate degree of hemolysis

CC(C)C[C@H](NC(=O)[C@H](Cc1c[nH]c2ccccc12)NC(=O)[C@H](CC(=O)O)NC(=O)[C@@H]1CCCN1C(=O)[C@H](Cc1ccccc1)NC(=O)[C@H](C)NC(=O)[C@H](CCC(=O)O)NC(=O)[C@H](CCCCN)NC(=O)[C@H](CC(C)C)NC(=O)[C@H](CCCCN)NC(=O)[C@H](CCC(=O)O)NC(=O)[C@H](C)NC(=O)[C@@H](NC(=O)[C@H](CCCCN)NC(=O)[C@H](CC(=O)O)NC(=O)[C@H](Cc1ccc(O)cc1)NC(=O)[C@H](Cc1ccccc1)NC(=O)[C@H](C)NC(=O)[C@H](CCCCN)NC(=O)[C@H](CC(C)C)NC(=O)[C@H](Cc1c[nH]c2ccccc12)NC(=O)[C@@H](N)CC(=O)O)C(C)C)C(=O)N[C@@H](CCCCN)C(=O)N[C@@H](C)C(=O)N[C@@H](Cc1ccccc1)C(=O)N[C@@H](Cc1ccc(O)cc1)C(=O)N[C@@H](CC(=O)O)C(=O)N[C@@H](CCCCN)C(=O)N[C@H](C(=O)N[C@@H](C)C(=O)N[C@@H](CCC(=O)O)C(=O)N[C@@H](CCCCN)C(=O)N[C@@H](C)C(=O)N[C@@H](CCCCN)C(=O)N[C@@H](CCC(=O)O)C(=O)N[C@@H](C)C(=O)N[C@@H](C)C(=O)O)C(C)C [2A] (H-DWLKAFYDKVAEKLKEAFPDWLKAFYDKVAEKAKEAA-OH; N-terminus and C-terminus assumed)
hemolysis / cytotoxicity to red blood cells (in words) (red blood cells): moderate degree of hemolysis

CC(C)C[C@H](NC(=O)[C@H](Cc1c[nH]c2ccccc12)NC(=O)[C@H](CC(=O)O)NC(=O)[C@@H]1CCCN1C(=O)[C@H](Cc1ccccc1)NC(=O)[C@H](C)NC(=O)[C@H](CCC(=O)O)NC(=O)[C@H](CCCCN)NC(=O)[C@H](CC(C)C)NC(=O)[C@H](CCCCN)NC(=O)[C@H](CCC(=O)O)NC(=O)[C@H](C)NC(=O)[C@@H](NC(=O)[C@H](CCCCN)NC(=O)[C@H](CC(=O)O)NC(=O)[C@H](Cc1ccc(O)cc1)NC(=O)[C@H](Cc1ccccc1)NC(=O)[C@H](C)NC(=O)[C@H](CCCCN)NC(=O)[C@H](CC(C)C)NC(=O)[C@H](Cc1c[nH]c2ccccc12)NC(=O)[C@@H](N)CC(=O)O)C(C)C)C(=O)N[C@@H](CCCCN)C(=O)N[C@@H](C)C(=O)N[C@@H](C)C(=O)N[C@@H](Cc1ccc(O)cc1)C(=O)N[C@@H](CC(=O)O)C(=O)N[C@@H](CCCCN)C(=O)N[C@H](C(=O)N[C@@H](C)C(=O)N[C@@H](CCC(=O)O)C(=O)N[C@@H](CCCCN)C(=O)N[C@@H](C)C(=O)N[C@@H](CCCCN)C(=O)N[C@@H](CCC(=O)O)C(=O)N[C@@H](C)C(=O)N[C@@H](C)C(=O)O)C(C)C [3A] (H-DWLKAFYDKVAEKLKEAFPDWLKAAYDKVAEKAKEAA-OH; N-terminus and C-terminus assumed)
hemolysis / cytotoxicity to red blood cells (in words) (red blood cells): moderate degree of hemolysis

CC(C)C[C@H](NC(=O)[C@H](Cc1c[nH]c2ccccc12)NC(=O)[C@H](CC(=O)O)NC(=O)[C@@H]1CCCN1C(=O)[C@H](Cc1ccccc1)NC(=O)[C@H](C)NC(=O)[C@H](CCC(=O)O)NC(=O)[C@H](CCCCN)NC(=O)[C@H](CC(C)C)NC(=O)[C@H](CCCCN)NC(=O)[C@H](CCC(=O)O)NC(=O)[C@H](C)NC(=O)[C@@H](NC(=O)[C@H](CCCCN)NC(=O)[C@H](CC(=O)O)NC(=O)[C@H](Cc1ccc(O)cc1)NC(=O)[C@H](Cc1ccccc1)NC(=O)[C@H](C)NC(=O)[C@H](CCCCN)NC(=O)[C@H](CC(C)C)NC(=O)[C@H](Cc1c[nH]c2ccccc12)NC(=O)[C@@H](N)CC(=O)O)C(C)C)C(=O)N[C@@H](CCCCN)C(=O)N[C@@H](C)C(=O)N[C@@H](C)C(=O)N[C@@H](Cc1ccc(O)cc1)C(=O)N[C@@H](CC(=O)O)C(=O)N[C@@H](CCCCN)C(=O)N[C@@H](C)C(=O)N[C@@H](C)C(=O)N[C@@H](CCC(=O)O)C(=O)N[C@@H](CCCCN)C(=O)N[C@@H](C)C(=O)N[C@@H](CCCCN)C(=O)N[C@@H](CCC(=O)O)C(=O)N[C@@H](C)C(=O)N[C@@H](C)C(=O)O [4A] (H-DWLKAFYDKVAEKLKEAFPDWLKAAYDKAAEKAKEAA-OH; N-terminus and C-terminus assumed)
hemolysis / cytotoxicity to red blood cells (in words) (red blood cells): no appreciable hemolysis

CC(C)C[C@H](NC(=O)[C@H](CCCCN)NC(=O)[C@H](CCC(=O)O)NC(=O)[C@H](C)NC(=O)[C@@H](NC(=O)[C@H](CCCCN)NC(=O)[C@H](CC(=O)O)NC(=O)[C@H](Cc1ccc(O)cc1)NC(=O)[C@H](Cc1ccccc1)NC(=O)[C@H](C)NC(=O)[C@H](CCCCN)NC(=O)[C@H](CC(C)C)NC(=O)[C@H](Cc1c[nH]c2ccccc12)NC(=O)[C@@H](N)CC(=O)O)C(C)C)C(=O)N[C@@H](CCCCN)C(=O)N[C@@H](CCC(=O)O)C(=O)N[C@@H](C)C(=O)N[C@@H](Cc1ccccc1)C(=O)N1CCC[C@H]1C(=O)N[C@@H](CC(=O)O)C(=O)N[C@@H](Cc1c[nH]c2ccccc12)C(=O)N[C@@H](C)C(=O)N[C@@H](CCCCN)C(=O)N[C@@H](C)C(=O)N[C@@H](C)C(=O)N[C@@H](Cc1ccc(O)cc1)C(=O)N[C@@H](CC(=O)O)C(=O)N[C@@H](CCCCN)C(=O)N[C@@H](C)C(=O)N[C@@H](C)C(=O)N[C@@H](CCC(=O)O)C(=O)N[C@@H](CCCCN)C(=O)N[C@@H](C)C(=O)N[C@@H](CCCCN)C(=O)N[C@@H](CCC(=O)O)C(=O)N[C@@H](C)C(=O)N[C@@H](C)C(=O)O [5A] (H-DWLKAFYDKVAEKLKEAFPDWAKAAYDKAAEKAKEAA-OH; N-terminus and C-terminus assumed)
hemolysis / cytotoxicity to red blood cells (in words) (red blood cells): no appreciable hemolysis

C[C@H](CCC(=O)NCCC[N+](C)(C)CCCS(=O)(=O)[O-])[C@H]1CC[C@H]2[C@@H]3[C@H](O)C[C@@H]4C[C@H](O)CC[C@]4(C)[C@H]3C[C@H](O)[C@]12C [CHAPS]
cholesterol efflux to other detergents compared with taurodeoxycholate [1]: Nearly identical results

C[C@H](CCC(=O)NCCS(=O)(=O)O)[C@H]1CC[C@H]2[C@@H]3CC[C@@H]4C[C@H](O)CC[C@]4(C)[C@H]3C[C@H](O)[C@]12C [taurodeoxycholate, reference compound]
effect on cell morphology [2]: did not alter the morphology of the cells | cholesterol efflux from ABCA1 cells to detergent after fixation ([1]; 0.02%, 1 hour, after fixation with 3% paraformaldehyde): slightly increased after fixation | cholesterol efflux from ABCA1 cells to detergent ([1]; 0.02%, 1 hour, before fixation): small amount of cholesterol efflux | cholesterol efflux from control cells to detergent ([3]; 0.02%, 1 hour): Approximately the same amount of cholesterol efflux

DWLKAFYDKVAEKLKEAFPDWLKAFYDKVA EKLKEAF [37pA, reference compound]
cholesterol and phospholipid efflux from ABCA1 cells (in words) [1]: promoted ABCA1-mediated cholesterol efflux | cholesterol and phospholipid efflux from control cells (in words) [3]: able to mediate cholesterol efflux from a control HeLa cell line

NP-40
cholesterol efflux to other detergents compared with taurodeoxycholate [1]: Nearly identical results

RMRITERDDFRGQMSEITDDCPSLQDRFHLTEVHSLRVLEGS (Gamma crystalline peptide.) [contains two non-amphipathic alpha helices of approximately the same length as the helices on 37pA, reference compound]
cholesterol and phospholipid efflux from ABCA1 cells (in words) [1]: completely ineffective | cholesterol and phospholipid efflux from control cells (in words) [3]: completely ineffective
